{"source": "patent US20230381202A1", "about": "“COMPOSITIONS AND METHODS FOR TREATING CARDIOVASCULAR RELATED DISORDERS” (The Regents of the University of Michigan, priority 2020, published 2023)", "key": {"C57BL/6J mice [1]": {"system": "C57BL/6J mice", "assay": "Mouse tail bleeding assay", "type": "in vivo", "details": "24 hours post IV; ML355 1.5 mg/kg, sHDL 50 mg/kg", "protocol": "Male and female C57BL/6J mice (n=6) were intravenously dosed with the following treatments: 1) vehicle control (equivalent volume); 2) ML355 (1.5 mg/kg); 3) sHDL (50 mg/kg); or 4) ML355-sHDL (sHDL at 50 mg/kg and ML355 at 1.5 mg/kg). The tail bleeding assay was performed post 24 hour of treatment as previously described (44, 56). Briefly, mice were anesthetized as described above and placed on a heating pad. Five millimeters of tail tip was excised, and the tails were immediately immersed in 14 mL of sterile saline at 37° C. Bleeding time was recorded as the cessation of blood flow from the tail for at least […] using a stopwatch. The amount of blood loss from tail tip was quantified by measuring hemoglobin using Drabkin's reagent (Sigma). Briefly, blood samples were pelleted at 500 g for 10 minutes at room temperature, and the pellet was resuspended in 5 mL Drabkin's Reagent and incubated at room temperature for 15 minutes. Amount of hemoglobin lost was quantified by comparing the absorbance of the samples at 540 nm using SpectraMax i3 microplate reader (Molecular Devices LLC., San Jose, CA) to a standard curve of bovine hemoglobin in Drabkin's reagent."}, "platelets": {"system": "platelets", "assay": "Phosphatidylserine exposure on platelets", "type": "in vivo, mouse", "details": "1, 6 and 24 hours post IV; compared to resting platelets", "protocol": "Male and female C57BL/6J mice (n=6) were intravenously dosed with the following treatments: 1) Saline control (equivalent volume); 2) ML355 (1.5 mg/kg); 3) sHDL (50 mg/kg); or 4) ML355-sHDL (sHDL at 50 mg/kg and ML355 at 1.5 mg/kg). At different time points post administration (1, 6 and 24 hours), the phosphatidylserine-exposure over time course in platelets from different groups were quantified by flow cytometry. Briefly, whole blood was collected from the saphenous vein and incubated with PE anti-mouse CD41 Antibody (BioLegend #133906) for platelet labeling and Annexin V, Alexa Fluor™ 647 conjugate (phosphatidylserine-exposure) (Thermo Fisher Scientific). The mean fluorescent intensity of Annexin in platelets was quantified by flow cytometry. In addition, blood collected from mice prior to treatment was taken as resting platelets (negative control) and blood stimulated with PAR4-AP (200 μM) was used as activated platelets (positive control)."}, "whole blood": {"system": "whole blood", "assay": "Coagulation tests by thromboelastography", "type": "in vivo, mouse", "details": "24 hours post IV; ML355 1.5 mg/kg, sHDL 50 mg/kg", "protocol": "Male and female C57BL/6J mice (n=6) were intravenously injected with vehicle control (equivalent volume of saline), ML355 (1.5 mg/kg), sHDL (50 mg/kg) or ML355-sHDL (sHDL at 50 mg/kg and ML355 at 1.5 mg/kg), respectively. 24 hours after administration, mice were anesthetized by intraperitoneal injection of ketamine/xylazine mixture as described above. Whole blood was collected via vena cava using a 25 G syringe containing sodium citrate 3.8% (blood to citrate volume ratio is […]). 340 μL citrated blood was mixed with 20 μL CaCl2 (0.2 mol/L), and viscoelastic properties of whole blood clot formation was studied under low shear stress using a Heamoscope TEG 5000 Thrombelastograph Hemostasis Analyzer (Haemonetics Corp., Braintree, Massachusetts, USA) according to the manufacturer's instructions. Major coagulation parameters including R time (time to formation of the initial fibrin threads), Alpha angle (the rapidity with which the clot forms), K time (the time until the clot reaches a certain strength) and maximum amplitude (clot's maximum strength) were analyzed and compared among different groups."}, "washed mouse platelets": {"system": "washed mouse platelets", "assay": "Ex vivo washed mice platelet activation inhibition test (thrombin-induced aggregation)", "type": "in vivo", "details": "for platelet aggregation: 24 hours after IV ML355 1.5 mg/kg, sHDL 50 mg/kg", "protocol": "Male and female C57BL/6J mice were divided into four groups (n=4) and intravenously dosed with the following formulations: 1) control vehicle (equivalent volume); 2) ML355 (1.5 mg/kg); 3) sHDL (50 mg/kg); or 4) ML355-sHDL (sHDL at 50 mg/kg and ML355 at 1.5 mg/kg). 24 hours after administration, mice were sacrificed under terminal anesthesia. […] Mouse platelet preparation was performed as previously described (44, 45). Murine platelets were resuspended at 3×10^8 platelets/mL in Tyrode's buffer. Mouse platelet aggregation was induced by various doses of thrombin (0.1-0.5 nM) and measured with a lumi-aggregometer using the same method described above."}, "[2]": {"details": "pH 7.4 PBS; cited from earlier work"}, "washed human platelets": {"system": "washed human platelets", "assay": "In vitro washed human platelet aggregation test (thrombin-induced)", "type": "cell-based", "details": "ML355 10 μM, sHDL 100 μg/mL, 15 minutes", "protocol": "Human platelets were prepared and aggregation was assayed as described previously (44, 45, 56). Platelets were incubated with DMSO (equivalent volume to dissolve ML355) and treated with control, ML355 (10 μM), sHDL (100 μg/mL), or ML355-sHDL (sHDL at 100 μg/mL and ML355 at 10 μM) for 15 minutes. In addition, untreated platelets were included as control. Platelet aggregation was induced by various doses of thrombin (0.1-1 nM) as reported in previous studies (44). Aggregation was measured in response to thrombin with a lumi-aggregometer (Model 700D; Chrono-Log) under stirring conditions at 1100 rpm at 37° C."}, "C57BL/6J mice [3]": {"system": "C57BL/6J mice", "assay": "FeCl3-induced carotid artery thrombosis model", "type": "in vivo, mouse", "details": "IV 24 hours before 10% FeCl3 injury", "protocol": "Male and female C57BL/6J mice (n=6) were intravenously injected with vehicle control (equivalent volume of saline), ML355 (1.5 mg/kg), sHDL (50 mg/kg) or ML355-sHDL (sHDL at 50 mg/kg and ML355 at 1.5 mg/kg), respectively. 24 hours post-administration, mice were anesthetized as described above and tail veins were injected with a DyLight 488 anti-GPIb (1 μg/g; Emfret, Elbelstadt, Germany) to label circulating resting platelets in mice prior to intravital microscopy imaging. The mice were placed on a heating pad and the right common carotid artery was prepared under the dissecting microscope. Then, the mice were placed on the microscopic stage and blood flow in the carotid artery was visualized under 10× air objective using a Zeiss Axio Examiner Z1 upright fluorescent microscopy. Carotid artery injury was induced by topically placing a 10% FeCl3 saturated Whatman paper for 3 minutes under recording. Images of platelet adhesion and the dynamics of thrombus formation were recorded for 30 minutes using a high-speed sCMOS camera using Slidebook 6.0."}, "C57BL/6J mice [4]": {"system": "C57BL/6J mice", "assay": "Laser-induced cremaster arteriole thrombosis model", "type": "in vivo, mouse", "details": "IV 24 hours before injury; ML355 1.5 mg/kg, sHDL 50 mg/kg", "protocol": "Male C57BL/6J mice (n=3) were intravenously dosed with the following treatments: 1) saline control (equivalent volume); 2) ML355 (1.5 mg/kg); 3) sHDL (50 mg/kg); or 4) ML355-sHDL (sHDL at 50 mg/kg and ML355 at 1.5 mg/kg). 24 hours post-administration, mice were anesthetized and surgically prepared as above described. DyLight 647-conjugated rat anti-mouse platelet GP11:43 antibody (0.1 μg/g; X649; EMFRET Analytics) was administered by jugular vein cannula prior to vascular injury. Multiple independent thrombi (8-10) were induced in the arterioles (30-50 μm diameter) in each mouse (3 mice per group) by a laser ablation system. All captured images were analyzed for change in fluorescent intensity over time of thrombus formation by subtracting fluorescent background defined on an uninjured section of the vessel using the Slidebook program. To monitor and compare dynamic thrombus formation among different treatment groups, the relative fluorescent intensity of Alexa Flour 647-labled platelets (recruited within thrombus) was plotted using the mean fluorescence at each time point. Data were evaluated for significance with two-way ANOVA and Mann-Whitney test for nonparametric data using Prism 6 software (Graphpad, La Jolla, CA, USA)."}}, "data": [{"smiles": "COc1cccc(CNc2ccc(S(=O)(=O)Nc3nc4ccccc4s3)cc2)c1O", "note": "[ML355, N-2-benzothiazolyl-4-[[(2-hydroxy-3-methoxyphenyl)methyl]amino]-benzenesulfonamide]", "values": [{"measurement": "blood loss evaluated by measuring hemoglobin", "setting": "C57BL/6J mice [1]", "result": "no effect"}, {"measurement": "tail bleeding time", "setting": "C57BL/6J mice [1]", "result": "did not prolong"}, {"measurement": "platelet phosphatidylserine exposure", "setting": "platelets", "result": "did not increase"}, {"measurement": "coagulation (TEG parameters R time, K time, alpha angle, MA)", "setting": "whole blood", "result": "did not compromise the coagulation"}, {"measurement": "platelet aggregation", "setting": "washed mouse platelets; 0.1 nM thrombin", "result": "20.3±3.5", "unit": "%"}, {"measurement": "platelet aggregation", "setting": "washed mouse platelets; 0.25 nM thrombin", "result": "32.6±6.6", "unit": "%"}, {"measurement": "inhibitory effects on platelet aggregation", "setting": "washed mouse platelets; 0.5 nM thrombin, 24 hours after IV dosing", "result": "overcome"}, {"measurement": "estimated solubility", "setting": "[2]", "result": "< 5", "unit": "µg/mL"}, {"measurement": "platelet aggregation", "setting": "washed human platelets; 0.1 nM thrombin", "result": "5.6±2.5", "unit": "%"}, {"measurement": "platelet aggregation", "setting": "washed human platelets; 0.25 nM thrombin", "result": "40.4±6.8", "unit": "%"}, {"measurement": "platelet aggregation", "setting": "washed human platelets; 0.5 nM thrombin", "result": "76.4±4.7", "unit": "%"}, {"measurement": "thrombus growth (and vessel occlusion)", "setting": "C57BL/6J mice [3]", "result": "delayed and unstable"}, {"measurement": "mean vessel occlusion time", "setting": "C57BL/6J mice [3]; ML355 1.5 mg/kg, sHDL 50 mg/kg", "result": "11.0 ± 2.3", "unit": "min"}, {"measurement": "inhibition of thrombus formation (platelet accumulation in thrombi)", "setting": "C57BL/6J mice [4]", "result": "varying levels of inhibition"}]}]}
